The values that follow come from article PMC6025901 (Science translational medicine, 2015).

Assay [1] relates to large clostridial toxins (TcdA and TcdB) in patient stool sample, cell rounding. As to the kind of experiment: cells. It is filed as cell-based. The settings on record: Homo sapiens, read-out: EC50 for inhibition of toxin-induced cytopathology.
The target in another assay is TcdB CPD domain (Clostridioides difficile, UniProt P18177). As to the kind of experiment: competition labeling assay with TAMRA–AWP-19. It is filed as biochemical, Clostridium difficile. The settings on record: IP6-activated CPD, TAMRA–AWP-19 labeling.
Sequence of TcdB CPD domain (P18177 544-799 limits assumed): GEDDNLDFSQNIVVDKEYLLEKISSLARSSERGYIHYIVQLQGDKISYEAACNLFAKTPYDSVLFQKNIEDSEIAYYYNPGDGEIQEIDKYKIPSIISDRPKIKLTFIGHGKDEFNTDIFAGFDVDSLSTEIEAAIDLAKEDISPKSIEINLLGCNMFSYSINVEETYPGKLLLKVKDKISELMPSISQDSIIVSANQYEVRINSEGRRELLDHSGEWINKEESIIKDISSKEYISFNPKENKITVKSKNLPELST
The target in the next assay is full-length TcdA (Clostridioides difficile, UniProt P16154). Put plainly: IP6-induced autoprocessing / TAMRA–AWP-19 labeling of full-length TcdA. The assay is classed as biochemical, Clostridium difficile.
Assay [2] concerns TcdB-induced cell rounding, human foreskin fibroblast (HFF) cells. Put plainly: cells. It is filed as cell-based. The settings on record: for pEC50: Homo sapiens, HFF.
The target of another assay is full-length TcdB (Clostridioides difficile, UniProt P18177). The assay is classed as biochemical, Clostridium difficile.
Sequence of full-length TcdB (P18177 whole entry): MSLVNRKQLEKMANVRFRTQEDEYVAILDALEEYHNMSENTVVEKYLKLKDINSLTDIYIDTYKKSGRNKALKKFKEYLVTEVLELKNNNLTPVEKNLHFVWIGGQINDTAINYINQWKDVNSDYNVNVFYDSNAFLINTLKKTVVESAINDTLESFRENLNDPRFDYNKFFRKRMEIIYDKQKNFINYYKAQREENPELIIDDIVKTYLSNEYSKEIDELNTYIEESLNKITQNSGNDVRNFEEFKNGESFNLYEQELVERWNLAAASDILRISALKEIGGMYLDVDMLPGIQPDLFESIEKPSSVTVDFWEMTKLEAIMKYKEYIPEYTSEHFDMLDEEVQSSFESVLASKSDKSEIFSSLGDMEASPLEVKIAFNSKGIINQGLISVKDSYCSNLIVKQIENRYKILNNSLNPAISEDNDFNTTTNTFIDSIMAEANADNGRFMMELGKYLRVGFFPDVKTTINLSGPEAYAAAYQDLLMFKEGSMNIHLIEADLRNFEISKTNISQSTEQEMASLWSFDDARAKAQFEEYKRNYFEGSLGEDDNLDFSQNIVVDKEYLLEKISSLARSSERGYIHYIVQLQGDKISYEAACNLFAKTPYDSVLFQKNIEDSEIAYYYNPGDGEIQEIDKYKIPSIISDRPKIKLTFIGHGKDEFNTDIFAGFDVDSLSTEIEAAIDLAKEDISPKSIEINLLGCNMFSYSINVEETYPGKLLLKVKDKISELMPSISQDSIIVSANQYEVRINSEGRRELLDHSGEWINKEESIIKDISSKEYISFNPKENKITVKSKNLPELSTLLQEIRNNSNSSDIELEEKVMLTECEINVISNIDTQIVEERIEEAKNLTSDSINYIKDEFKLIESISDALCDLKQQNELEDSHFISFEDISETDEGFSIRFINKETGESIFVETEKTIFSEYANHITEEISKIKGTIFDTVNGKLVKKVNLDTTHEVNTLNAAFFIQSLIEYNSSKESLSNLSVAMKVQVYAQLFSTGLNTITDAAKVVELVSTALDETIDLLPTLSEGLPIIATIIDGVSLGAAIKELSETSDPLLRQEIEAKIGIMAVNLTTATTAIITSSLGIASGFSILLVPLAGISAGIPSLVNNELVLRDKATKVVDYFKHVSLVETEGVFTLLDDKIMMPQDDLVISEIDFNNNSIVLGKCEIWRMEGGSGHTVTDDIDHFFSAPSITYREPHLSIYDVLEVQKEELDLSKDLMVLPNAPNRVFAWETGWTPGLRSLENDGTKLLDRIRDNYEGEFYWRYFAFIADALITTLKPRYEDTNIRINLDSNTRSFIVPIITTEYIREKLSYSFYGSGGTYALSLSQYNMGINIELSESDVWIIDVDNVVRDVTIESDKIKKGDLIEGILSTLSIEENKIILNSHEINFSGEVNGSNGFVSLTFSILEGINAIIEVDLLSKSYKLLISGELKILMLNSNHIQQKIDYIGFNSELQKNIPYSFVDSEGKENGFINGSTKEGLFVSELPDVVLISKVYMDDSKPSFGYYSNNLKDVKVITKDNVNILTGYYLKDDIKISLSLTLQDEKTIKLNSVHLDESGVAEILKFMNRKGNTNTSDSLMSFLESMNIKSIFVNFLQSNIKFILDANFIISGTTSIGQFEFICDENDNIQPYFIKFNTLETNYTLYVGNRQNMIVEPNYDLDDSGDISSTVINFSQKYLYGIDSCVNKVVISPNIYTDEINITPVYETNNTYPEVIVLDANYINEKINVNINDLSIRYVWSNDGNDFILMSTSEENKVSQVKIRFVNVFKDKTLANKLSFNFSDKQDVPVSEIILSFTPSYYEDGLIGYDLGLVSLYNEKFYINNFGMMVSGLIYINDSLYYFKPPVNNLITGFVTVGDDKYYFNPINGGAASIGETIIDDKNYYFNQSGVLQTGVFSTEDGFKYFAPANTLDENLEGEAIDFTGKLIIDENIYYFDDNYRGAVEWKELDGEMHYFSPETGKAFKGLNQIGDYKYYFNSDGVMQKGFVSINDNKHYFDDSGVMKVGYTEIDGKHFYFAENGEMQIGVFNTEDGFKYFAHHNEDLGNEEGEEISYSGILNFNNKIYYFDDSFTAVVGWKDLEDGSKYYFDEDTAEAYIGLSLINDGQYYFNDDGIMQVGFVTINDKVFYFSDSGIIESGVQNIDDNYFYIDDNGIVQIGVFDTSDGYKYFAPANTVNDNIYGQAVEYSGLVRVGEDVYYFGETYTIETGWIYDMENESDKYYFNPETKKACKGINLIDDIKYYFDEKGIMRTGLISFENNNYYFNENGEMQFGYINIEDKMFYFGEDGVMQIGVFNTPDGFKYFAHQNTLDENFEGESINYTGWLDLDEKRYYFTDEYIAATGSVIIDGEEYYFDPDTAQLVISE
A further assay relates to C. difficile strain 630. Put plainly: mouse C. difficile infection model. The assay is classed as in vivo. Conditions: for histopathological score, dose-response study: 5-day treatment.
The target in another assay is TcdB (Clostridioides difficile, UniProt P18177). Put plainly: murine systemic intoxication. The assay is classed as in vivo, mouse. Conditions: mice, TcdB 1.0 µg/kg i.p. pretreated with 100 nM ebselen.
Sequence of TcdB (P18177 2-2366 limits assumed): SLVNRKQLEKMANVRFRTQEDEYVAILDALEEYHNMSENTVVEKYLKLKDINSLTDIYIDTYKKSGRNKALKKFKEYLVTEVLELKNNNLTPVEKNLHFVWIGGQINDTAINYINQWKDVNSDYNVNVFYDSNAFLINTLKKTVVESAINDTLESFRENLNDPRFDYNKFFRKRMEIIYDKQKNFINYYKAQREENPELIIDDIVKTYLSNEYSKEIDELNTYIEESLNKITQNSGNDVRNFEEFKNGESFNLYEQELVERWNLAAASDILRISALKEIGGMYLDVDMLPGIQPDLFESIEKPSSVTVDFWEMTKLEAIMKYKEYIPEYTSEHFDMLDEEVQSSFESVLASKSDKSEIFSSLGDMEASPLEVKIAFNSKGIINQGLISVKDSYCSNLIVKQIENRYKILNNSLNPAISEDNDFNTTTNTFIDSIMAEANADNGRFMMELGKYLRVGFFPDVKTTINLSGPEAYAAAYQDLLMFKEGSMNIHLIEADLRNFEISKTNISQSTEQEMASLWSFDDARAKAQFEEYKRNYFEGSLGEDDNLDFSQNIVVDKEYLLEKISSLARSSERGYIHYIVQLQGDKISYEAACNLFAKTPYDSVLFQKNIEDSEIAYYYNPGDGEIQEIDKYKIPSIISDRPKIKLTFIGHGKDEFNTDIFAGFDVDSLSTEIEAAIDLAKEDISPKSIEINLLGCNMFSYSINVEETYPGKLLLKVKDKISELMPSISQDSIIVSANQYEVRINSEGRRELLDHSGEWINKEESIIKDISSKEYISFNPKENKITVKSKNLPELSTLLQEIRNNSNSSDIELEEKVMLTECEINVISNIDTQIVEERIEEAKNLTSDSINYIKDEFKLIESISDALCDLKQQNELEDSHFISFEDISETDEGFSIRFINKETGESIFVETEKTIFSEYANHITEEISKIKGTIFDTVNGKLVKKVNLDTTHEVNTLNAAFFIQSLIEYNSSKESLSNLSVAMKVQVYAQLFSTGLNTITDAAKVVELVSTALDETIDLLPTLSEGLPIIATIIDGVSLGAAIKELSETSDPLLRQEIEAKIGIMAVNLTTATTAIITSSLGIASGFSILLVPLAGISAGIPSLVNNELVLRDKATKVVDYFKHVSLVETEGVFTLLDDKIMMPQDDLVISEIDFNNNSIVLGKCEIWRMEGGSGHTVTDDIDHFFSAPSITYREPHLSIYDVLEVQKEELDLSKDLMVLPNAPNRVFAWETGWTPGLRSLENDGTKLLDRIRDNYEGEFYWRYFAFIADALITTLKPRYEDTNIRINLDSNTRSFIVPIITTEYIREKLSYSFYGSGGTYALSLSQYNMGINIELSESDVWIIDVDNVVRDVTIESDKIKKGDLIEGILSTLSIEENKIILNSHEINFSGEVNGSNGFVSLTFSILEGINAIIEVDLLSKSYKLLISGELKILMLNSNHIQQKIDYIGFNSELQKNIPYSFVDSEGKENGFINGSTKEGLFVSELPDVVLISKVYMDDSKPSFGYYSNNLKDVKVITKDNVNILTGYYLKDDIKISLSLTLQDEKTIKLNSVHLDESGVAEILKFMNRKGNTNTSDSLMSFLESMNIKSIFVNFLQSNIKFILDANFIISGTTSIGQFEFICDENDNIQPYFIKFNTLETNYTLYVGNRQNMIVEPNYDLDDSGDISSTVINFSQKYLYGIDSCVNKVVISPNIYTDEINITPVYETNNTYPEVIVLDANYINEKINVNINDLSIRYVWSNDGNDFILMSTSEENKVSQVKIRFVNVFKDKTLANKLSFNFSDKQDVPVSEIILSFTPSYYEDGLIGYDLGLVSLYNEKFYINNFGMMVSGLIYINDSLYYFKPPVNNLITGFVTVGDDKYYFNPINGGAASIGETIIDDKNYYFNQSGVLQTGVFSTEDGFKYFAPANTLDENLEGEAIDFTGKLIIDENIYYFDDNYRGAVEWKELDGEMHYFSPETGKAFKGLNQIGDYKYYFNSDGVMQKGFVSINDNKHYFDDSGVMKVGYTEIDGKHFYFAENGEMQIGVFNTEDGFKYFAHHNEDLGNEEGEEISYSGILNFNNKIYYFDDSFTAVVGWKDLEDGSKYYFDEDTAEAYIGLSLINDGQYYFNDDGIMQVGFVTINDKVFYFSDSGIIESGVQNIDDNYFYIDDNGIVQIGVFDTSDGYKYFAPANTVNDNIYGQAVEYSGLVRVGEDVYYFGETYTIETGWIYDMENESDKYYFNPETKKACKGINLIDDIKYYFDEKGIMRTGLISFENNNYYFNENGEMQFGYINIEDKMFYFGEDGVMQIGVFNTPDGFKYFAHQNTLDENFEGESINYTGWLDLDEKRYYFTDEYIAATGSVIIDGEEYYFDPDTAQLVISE
The target of assay [3] is TcdB GTD domain (amino acids 1 to 543) (Clostridioides difficile, UniProt P18177). It is filed as biochemical, Clostridium difficile.
Setting [4] is: 100 mg/kg daily oral gavage, day 5, vs vehicle.

pEC50: −log10 of the molar value. Where two headings read alike, the source gives them in different places.

As a reminder, the pEC50 is the negative decadic logarithm of the EC50, by convention in mol/L.

As for `O=c1c2ccccc2[se]n1-c1ccccc1` [ebselen, 2-phenyl-1,2-benzoselenazol-3-one], the values for the negative logarithm of the EC50 (pEC50) in assay [1], in assay [2] (read-out: EC50 for blocking cell rounding) and in assay [2] (read-out: EC50 for protection against cell rounding) were 6.43, 7.69 and 6.66, respectively. Further, on TcdB CPD domain, the “inhibition of IP6-induced labeling of the CPD active-site cysteine” value was “low nanomolar concentrations”. The “inhibition of IP6-induced autoprocessing of full-length TcdA” value against full-length TcdA is reported as “low nanomolar potency”. In addition, in assay [2], the “glucosylated Rac1 (Western blot, mAb102 nonglucosylated Rac1)” value was “decreased with increasing amounts of ebselen”. Moreover, the “protection against delayed toxicity of L543A noncleavable mutant TcdB” value in assay [2] is reported as “showed further protection”. On full-length TcdB, the “concentration giving complete inhibition of IP6-induced release of the GTD” value was found to be 20 nM. Further, the “inhibition of IP6-induced autoprocessing of full-length TcdB” value against full-length TcdB was “low nanomolar potency”. Further, the results for the “histopathological score, dose-response study” value in the assay with C. difficile strain 630 (1 mg/kg daily), with C. difficile strain 630 (10 mg/kg daily) and in the assay with C. difficile strain 630 (100 mg/kg daily) were “no improvement in histopathological score”, “partial response” and “virtually complete response”, respectively. The “C. difficile CFU counts in feces” value with C. difficile strain 630 (100 mg/kg daily oral gavage, 5-day experiment) is “did not significantly affect”. In the assay with C. difficile strain 630 (setting [4]), the “histopathological scores for cell infiltration, submucosal edema, and mucosal hypertrophy” value is on record as “significantly lower”. Besides, in the assay with C. difficile strain 630 (setting [4]), the “overall histopathological (clinical) score” value was “statistically significant drop in clinical score”. For the same compound, the “cell rounding activity of shed toxin in feces (quantity of feces required to induce 50% cell rounding)” value in the assay with C. difficile strain 630 (100 mg/kg daily oral gavage, day 5 after infection) is on record as “reduction in cell rounding activity of shed toxin”. The “cleaved form of GTD in colon tissues (Western blot)” value in the assay on C. difficile strain 630 (100 mg/kg daily oral gavage, vs vehicle) is “reduced the amount of the cleaved form of GTD”. The “clinical signs of toxin action (vital signs)” value at TcdB was “no significant changes in vital signs”. Further, the “inhibition of glucosyltransferase activity of the GTD domain” value in assay [3] is on record as “did not show any inhibition”.
